# Test results reported in patent publication US6900193B1, “Structural modification of 19-norprogesterone I: 17-α-substituted-11-β-substituted-4-aryl and 21-substituted 19-norpregnadienedione as new antiprogestational agents” (The United States of America as represented by the …, priority 1996, dated 2005).
# How the values were obtained:
# [1] = test system: progesterone-induced endometrial proliferation; test: AntiClauberg test; type: in vivo, rabbit; design: key to ANTIPROGESTATIONAL Anti-Clauberg: relative oral potency vs. reference compound set to 100; conditions: for BIOLOGICAL ACTIVITY antiClauberg: Table 2; for antiClauberg / oral antiprogestational activity, in words: versus the standard 69B
# Protocol: AntiClauberg Test (Clauberg, C., Zentr. Gynakol., 54:2757-2770 (1930)) Immature female rabbits of the New Zealand White breed (approx. 1 kg body weight) were maintained under standard laboratory conditions and received a subcutaneous injection of 5 μg estradiol in 10% ethanol/sesame oil daily for 6 consecutive days. Twenty-four hours after the last dose of estradiol (day 7) animals received progesterone by subcutaneous injection (0.8 mg/day) and the experimental compound in appropriate vehicle (usually 10% ethanol/sesame oil) orally or subcutaneously for five consecutive days. One group of rabbits received progesterone only. Twenty-four hours after the last dose all animals were sacrificed for removal of the uterus which was cleaned of all fat and connective tissue, weighed to the nearest 0.2 mg and placed in 10% neutral buffered formalin for subsequent histological processing. Five micron sections stained with hematoxylin and eosin (H&E) were evaluated microscopically for the degree of endometrial glandular proliferation according to the method of McPhail (McPhail, supra). The percent inhibition of endometrial proliferation at each dose level of the experimental compound was derived by comparison with the progesterone-stimulated animals alone.
# [2] = target: T1, progesterone receptor (estrogen-primed rabbit uterus) (Oryctolagus cuniculus, UniProt P06186); test: Relative binding affinity, progesterone receptor; conditions: for BINDING AFFINITY Progester: Table 2; for binding affinities compared with the standard, compound 69B: progesterone receptor implied (rabbit or human isoform A not specified)
# T1 construct: preparation of cytosols for the progesterone and glucocorticoid receptor assays; from tissue; host or cells: uterus of estradiol-primed immature female New Zealand White rabbits (cytosol)
# T1 sequence (P06186 1-930): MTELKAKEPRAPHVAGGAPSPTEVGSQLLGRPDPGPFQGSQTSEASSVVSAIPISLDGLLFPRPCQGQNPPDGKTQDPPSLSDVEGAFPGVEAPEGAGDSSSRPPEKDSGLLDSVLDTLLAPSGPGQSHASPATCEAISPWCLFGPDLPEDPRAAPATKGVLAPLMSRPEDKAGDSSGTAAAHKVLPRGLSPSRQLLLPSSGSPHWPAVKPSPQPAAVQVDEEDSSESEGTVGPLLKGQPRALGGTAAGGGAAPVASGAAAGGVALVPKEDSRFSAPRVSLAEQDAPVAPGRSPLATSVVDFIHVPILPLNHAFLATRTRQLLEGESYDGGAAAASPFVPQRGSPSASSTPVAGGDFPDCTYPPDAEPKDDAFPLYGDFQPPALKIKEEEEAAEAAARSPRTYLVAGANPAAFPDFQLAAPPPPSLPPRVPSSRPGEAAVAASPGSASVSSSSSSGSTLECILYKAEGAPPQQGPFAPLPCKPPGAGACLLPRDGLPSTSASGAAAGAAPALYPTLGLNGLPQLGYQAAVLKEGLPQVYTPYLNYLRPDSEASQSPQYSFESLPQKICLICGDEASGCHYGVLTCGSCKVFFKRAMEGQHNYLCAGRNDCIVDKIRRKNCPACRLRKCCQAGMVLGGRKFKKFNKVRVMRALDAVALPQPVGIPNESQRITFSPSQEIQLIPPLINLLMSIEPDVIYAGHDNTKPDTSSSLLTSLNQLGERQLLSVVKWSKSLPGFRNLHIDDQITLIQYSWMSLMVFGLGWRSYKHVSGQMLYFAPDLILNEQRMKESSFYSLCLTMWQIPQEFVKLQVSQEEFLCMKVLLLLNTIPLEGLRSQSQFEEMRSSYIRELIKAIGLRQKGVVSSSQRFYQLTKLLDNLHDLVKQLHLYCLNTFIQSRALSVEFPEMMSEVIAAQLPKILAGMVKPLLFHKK
# Protocol: (§1) Relative Binding Affinities for the Progesterone and Glucocorticoid Receptors
# (§2) Uteri and thymus glands were obtained from estradiol-primed immature female rabbits of the New Zealand White strain for preparation of cytosols for the progesterone and glucocorticoid receptor assays, respectively. Tissues were excised and immediately placed in ice cold TEGDM buffer (10 mM Tris, pH 7.4; 1.5 mM EDTA; 10% glycerol vol/vol/; 1 mM dithiothreitol [DTT]; and 20 mM sodium molybdate). The tissues were dissected free of connective tissue and fat, weighed and minced finely. Minced tissues were homogenized in 3 volumes TEGDM/gm with four 10 second bursts of a VirTis Cyclone set at half maximum speed with a 30 second cooling period (in ice) between bursts. Homogenates were centrifuged at 109,663 g at 4° C. for 1 hour to yield the soluble cytosol fiction. Aliquots of cytosol were snap frozen and stored at −75° C.
# (§3) All binding assays were carried out at 2-6° C. for 16-18 hours. The following radioactive ligands were used: [1,2-^3H(N)]-progesterone (50.0 Ci/mmole) for the progesterone receptor (PR). […] For the progesterone receptor RBA assays 0.02 ml uterine cytosol or TEDGM buffer, 0.05 ml of various concentrations of test compounds or progesterone, 0.13 ml TEGDM buffer and 0.05 ml [^3H]-progesterone were added to duplicate tubes. For the glucocorticoid receptor RBA assays 0.1 ml thymus cytosol or TEDGM buffer, 0.05 ml of various concentrations of test compounds or dexamethasone, 0.05 ml TEGDM buffer and 0.05 ml [3H]-dexamethasone were added to duplicate tubes. For the estrogen receptor RBA assays 0.05 ml uterine cytosol, 0.1 ml TEGDM buffer, 0.05 ml of various concentrations of test compounds or estradiol and 0.05 ml [^3H]-estradiol were added to duplicate tubes. The concentrations of the test compounds, progesterone, dexamethasone and estradiol ranged from 0.05 to 100 nM and the concentrations of the competitors ranged from 0.5 to 500 nM. Total binding was measured at radioligand concentrations of 3.5 nM and nonspecific binding was measured in the presence of a 200-fold excess of unlabeled progesterone (PR), dexamethasone (GR) or diethylstilbestrol (ER), respectively.
# (§4) In all incubations bound and free ligand were separated using dextra-coated charcoal (DCC). A 0.1 ml aliquot of DCC (0.5% charcoal/0.05% Dextran T-70) was added to each tube. The tubes were vortexed and incubated on ice for 10 minutes. Five-tenths ml TEG buffer (without DTT or molybdate) was then added to all tubes to improve supernatant recovery following centrifugation. The charcoal was pelleted by centrifugation at 2,100 g for 15 minutes at 4° C. The supernatants containing the [^3H]-steroid receptor complexes were decanted into vials containing 4 ml Optifluor (Packard Instrument Co.), vortexed, equilibrated in a liquid scintillation counter for 30 minutes and then counted for 2 minutes. This provided the quantity of receptor bound [^3H]-steroid at each competitor concentration.
# [3] = target: T2, glucocorticoid receptor (estrogen-primed rabbit thymus) (Oryctolagus cuniculus, UniProt P59667); test: Relative binding affinity, glucocorticoid receptor; conditions: for BINDING AFFINITY Glucocortic: Table 2
# T2 construct: preparation of cytosols for the progesterone and glucocorticoid receptor assays; from tissue; host or cells: thymus of estradiol-primed immature female New Zealand White rabbits (cytosol)
# T2 sequence (P59667 1-772): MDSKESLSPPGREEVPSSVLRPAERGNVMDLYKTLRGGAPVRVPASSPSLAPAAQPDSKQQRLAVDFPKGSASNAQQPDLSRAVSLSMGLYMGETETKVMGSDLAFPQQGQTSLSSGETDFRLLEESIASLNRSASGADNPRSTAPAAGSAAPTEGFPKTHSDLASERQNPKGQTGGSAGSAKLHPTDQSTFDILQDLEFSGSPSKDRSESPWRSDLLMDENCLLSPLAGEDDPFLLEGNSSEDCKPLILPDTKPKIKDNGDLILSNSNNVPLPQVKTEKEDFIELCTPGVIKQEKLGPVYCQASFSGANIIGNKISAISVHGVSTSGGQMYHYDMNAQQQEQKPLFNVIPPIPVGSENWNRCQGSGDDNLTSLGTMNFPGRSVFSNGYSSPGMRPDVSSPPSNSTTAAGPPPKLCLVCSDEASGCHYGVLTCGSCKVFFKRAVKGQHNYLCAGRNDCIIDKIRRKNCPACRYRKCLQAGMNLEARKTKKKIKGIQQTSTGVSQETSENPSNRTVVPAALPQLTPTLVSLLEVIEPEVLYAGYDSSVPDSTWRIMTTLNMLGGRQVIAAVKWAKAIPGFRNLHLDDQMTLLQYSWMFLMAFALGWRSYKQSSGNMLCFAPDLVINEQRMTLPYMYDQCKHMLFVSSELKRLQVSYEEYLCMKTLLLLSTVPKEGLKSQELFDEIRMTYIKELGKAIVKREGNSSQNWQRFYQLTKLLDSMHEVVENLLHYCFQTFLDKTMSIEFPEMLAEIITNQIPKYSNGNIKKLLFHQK
# Protocol: as §1, §2, §3, §4
# [4] = oral, CDB-2914 = 100 (assigned)
# [5] = estrogen-primed rabbit uterus, progesterone = 100%
# [6] = estrogen-primed rabbit thymus, dexamethasone = 100%
Structure (SMILES),"BIOLOGICAL ACTIVITY antiClauberg [1, 4]","BINDING AFFINITY Progester [2, 5] [%]","binding affinities compared with the standard, compound 69B [2]","BINDING AFFINITY Glucocortic [3, 6] [%]","antiClauberg / oral antiprogestational activity, in words ([1]; oral)","binding affinity for the glucocorticoid receptor, in words ([3]; rabbit thymus, versus CDB-2914 (69B) where stated)","ANTIPROGESTATIONAL Anti-Clauberg ([1]; oral, relative potency, CDB-2914 = 100 (assigned))",more potent in the antiClauberg test than the lead compound ([1]; versus CDB-2914),"RELATIVE BINDING AFFINITY Progesterone [2, 5] [%]","RELATIVE BINDING AFFINITY Glucocorticoid [3, 6] [%]"
"COCC1(C(C)=O)CCC2C3CCC4=CC(=O)CCC4=C3C(c3ccc(N(C)C)cc3)CC21C (stereo not drawn) [Compound 91, 17α-Methoxymethyl-11β-[4-(N,N-methylamino)phenyl]-19-norpregna-4,9-diene-3,20-dione]",inactive,171,binding affinities greater than that observed for the standard,59,,,,,,
"COC1(C(C)=O)CCC2C3CCC4=CC(=O)CCC4=C3C(c3ccc(N(C)C)cc3)CC21C (stereo not drawn) [Compound 97a, 17α-Methoxy-11β-[4-(N,N-dimethylamino)phenyl]-19-norpregna-4,9-diene-3,20-dione]",110,120,binding affinities greater than that observed for the standard,52,greater activity than the standard,,,,,
"C=COCC(=O)[C@@]1(OC(C)=O)CCC2C3CCC4=CC(=O)CCC4=C3C(c3ccc(N(C)C)cc3)C[C@@]21C (stereo partly drawn) [Compound 129, 17α-Acetoxy-11β-[4-(N,N-dimethylamino)phenyl]-21-(1′-ethenyloxy)-19-norpregna-4,9-diene-3,20-dione]",303,155,binding affinities greater than that observed for the standard,20,greater activity than the standard,low binding affinity,,,,
"CC(=O)O[C@]1(C(C)=O)CC[C@H]2[C@@H]3CCC4=CC(=O)CCC4=C3[C@@H](c3ccc(N4CCOCC4)cc3)C[C@@]21C [Compound 72, 17α-Acetoxy-11β-[4-(N-Morpholino)phenyl]-19-norpregna-4,9-diene-3,20-dione]",35,109,binding affinities greater than that observed for the standard,110,,,,,,
"CC(=O)O[C@]1(C(=O)COC(=O)CCC2CCCC2)CC[C@H]2[C@@H]3CCC4=CC(=O)CCC4=C3[C@@H](c3ccc(N(C)C)cc3)C[C@@]21C [Compound 40, 17α-acetoxy-21-(3′-cyclopentylpropionyloxy)-11β-[4-(N,N-dimethylamino)phenyl]-19-norpregnadiene-3,20 dione]",,,,,greater activity than the standard,,155,about 50%,74,37
"CCC(=O)OCC(=O)[C@@]1(OC(C)=O)CCC2C3CCC4=CC(=O)CCC4=C3C(c3ccc(N(C)C)cc3)C[C@@]21C (stereo partly drawn) [Compound 126a, 17α-Acetoxy-11β-[4-(N,N-dimethylamino)phenyl]-21-propionyloxy-19-norpregna-4,9-diene-3,20-dione]",170,95,,43,greater activity than the standard,,,,,
"CN(C)c1ccc([C@H]2C[C@@]3(C)[C@@H](CC[C@]3(OC=O)C(=O)COC=O)[C@@H]3CCC4=CC(=O)CCC4=C32)cc1 [Compound 139, 17α,21-Diformyloxy-11β-[4-(N,N-dimethylamino)phenyl]-19-norpregna-4,9-diene-3,20-dione]",inactive,30,,79,,,,,,
CSc1ccc([C@H]2C[C@@]3(C)[C@@H](CC[C@]3(OC(C)=O)C(C)=O)[C@@H]3CCC4=CC(=O)CCC4=C32)cc1 [Compound 74],<10,131,,32,,,,,,
